Laboratory results: patent US7022699B2, “Cyclohexenyl phenyl diazepines vasopressin and oxytocin receptor modulators” (Wyeth, priority 2001, dated 2006)

molecular target: T1, human vasopressin V1a receptor subtype (Homo sapiens, UniProt P37288); test: Vasopressin binding in CHO cell membranes expressing human vasopressin V1a subtype receptors ([3H]Manning ligand); settings: 100 nM, values without parentheses
T1 construct: host or cells: CHO cells, stably transfected (pZeoSV vector for the Thibonnier cells); membranes
T1 sequence (P37288 whole entry): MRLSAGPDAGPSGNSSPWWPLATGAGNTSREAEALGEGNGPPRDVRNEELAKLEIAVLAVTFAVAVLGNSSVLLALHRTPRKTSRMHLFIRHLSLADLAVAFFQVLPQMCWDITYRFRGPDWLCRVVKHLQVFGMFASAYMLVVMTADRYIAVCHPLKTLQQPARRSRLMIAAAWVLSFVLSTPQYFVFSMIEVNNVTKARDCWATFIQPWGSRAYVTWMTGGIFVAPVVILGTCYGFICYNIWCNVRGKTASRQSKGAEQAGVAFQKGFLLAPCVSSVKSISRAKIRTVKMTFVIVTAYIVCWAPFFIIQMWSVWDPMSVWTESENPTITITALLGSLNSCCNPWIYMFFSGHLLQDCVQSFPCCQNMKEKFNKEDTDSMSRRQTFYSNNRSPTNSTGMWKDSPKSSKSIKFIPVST
Excerpt: Vasopressin Binding in Chinese Hamster Ovary Cell Membranes Expressing Human Vasopressin V1a Subtype Receptors
Chinese hamster ovary cells (CHO cells) stably transfected with the human vasopressin V1a subtype receptors were either obtained from Biosignal Inc., 1744 rue Williams, Montreal, Quebec, Canada or obtained from M. Thibonnier, Case Western Reserve University School of Medicine, Cleveland, Ohio. A. Passaging and Amplification of Cells: CHO cells transfected with the human vasopressin V1a subtype receptors obtained from M. Thibonnier (pZeoSV vector) are allowed to grow to confluency (approx. >90%) in T-150 flasks under sterile conditions, in a cell culture medium of F-12 Nutrient Mixture (HAM) with L-glutamine (Gibco Cat. #11765-054) containing 15 mM HEPES (Gibco Cat. #15630-080), 1% antibiotic/antimycotic (add 5 mL 100×, Gibco Cat. #15240-062 per 500 mL F-12), 250 μg/mL Zeocin (add 1.25 mL of 100 mg/mL Invitrogen R-250-01 per 500 mL F-12) and 10% Fetal Bovine Serum (Qualified, heat inactivated, Gibco Cat. #16140-063). The medium is removed by aspiration and the cells are washed with 10 mL of Hank's Balanced Salt solution (Gibco Cat. #14175-095). The salt solution is removed by aspiration and the cells are trypsinized with 5 mL of trypsin-EDTA (0.05% trypsin, 0.53 mM EDTA-4Na, Gibco Cat. #25300-070) for 1 min. The trypsin is removed by aspiration and the cells dislodged by tapping. Cell Culture medium (eg, 30 mL for 1:30 split) is immediately added and mixed well to inactivate trypsin. 1 mL of detached cells is added to new culture flasks containing fresh cell culture medium (eg, into 25 mL per T-150 flask), and mixed gently. The cells are incubated at 37° C. in 5% CO2. The medium is changed at 3 to 4 days interval (or as appropriate). The cells grow to confluency (approx. >75%–95%) within 7–8 days. All steps are done under sterile conditions. B. Membrane Preparation: The cells are washed twice gently with Hank's Balanced Salt solution (e.g.,. use 10 mL per T-150 flask). The excess is removed and the cells are bathed for 15–30 min. in an enzyme-free Cell Dissociation Buffer (e.g. use 8 mL Hank's Based, Gibco Cat. #13150-016 per T-150 flask) until the cells are loosened. The contents are transferred to centrifuge tubes (50 mL size) kept in ice bath. All subsequent steps are done at 4° C. The tubes are centrifuged at 300×g for 15 min (1380 rpm on SORVAL, Model RT6000D, using rotor for 50 mL tubes). The supernatant is discarded and the cells suspended in homogeneizing buffer (10 mM Tris-HCl containing 0.25 M sucrose and 1 mM EDTA, pH 7.4) ensuring that the volume of the buffer is about ten times the volume of the cell pellet. The cells are pooled into a centrifuge tube (50 mL) and homogenized with Polytron at setting 6 for 10 sec. The homogenate is transferred into a Potter-Elvjehm homogenizer and homogenized with 3 strokes. The homogenate is centrifuged at 1500×g for 10 min at 4° C. (3100 rpm using SORVAL, model RT6000D, using rotor for 50 mL tubes). The pellet is discarded. The supernatant is centrifuged at 100,000×g for 60 min. at 4° C. (Beckman L8-80M ultracentrifuge; spin at 37,500 rpm with rotor type 70 Ti for 50 mL tubes; 38,000 rpm with type 80Ti for 15 mL tubes; or 35,800 rpm with rotor type 45Ti). The supernantant is discarded and the pellet suspended in 3 to 4 mL of Tris buffer (50 mM TRIS-HCl, pH 7.4). The protein content is estimated by the Bradford or Lowry method. The volume of the membrane suspension is adjusted with the membrane buffer (50 mM Tris-HCl containing 0.1% BSA and 0.1 mM PMSF) to give 3.0 mg/mL (or as appropriate) of protein. The membranes are aliquoted and stored at −70° C. C. […]

| SMILES | inhibition at 0.1 µM [%] | V1a % inhibition @ 100 nM [%] |
| --- | --- | --- |
| CC1=C(c2ccc(C(=O)N3Cc4cccn4Cc4ccccc43)cc2C)C(C)CCC1 (stereo not shown) [Example 33, (10,11-Dihydro-5H-pyrrolo[2,1-c][1,4]benzodiazepin-10-yl)-[4-(2,6-dimethyl-cyclohex-1-en-1-yl)-3-methyl-phenyl]-methanone] | 6 | – |
| Cc1cc(C(=O)N2Cc3cccn3Cc3ccccc32)ccc1C1=CC(O)CCC1 (stereo not shown) [Example 40, (10,11-Dihydro-5H-pyrrolo[2,1-c][1,4]benzodiazepin-10-yl)-[4-(3-hydroxy-cyclohex-1-en-1-yl)-3-methyl-phenyl]-methanone] | 91 | – |
| O=C(c1ccc(C2=CCC3CCC2C3)cc1)N1Cc2cccn2Cc2ccccc21 (stereo not shown) [Example 21] | – | 37 |
| CC1=C(c2ccc(C(=O)N3Cc4cccn4Cc4ccccc43)c(Cl)c2)CCCC1O (stereo not shown) [Example 14, (10,11-Dihydro-5H-pyrrolo[2,1-c][1,4]benzodiazepin-10-yl)-[2-chloro-4-(3-hydroxy-2-methyl-cyclohex-1-en-1-yl)-phenyl]-methanone] | 10 | – |
| CC1=C(c2ccc(C(=O)N3Cc4cccn4Cc4ccccc43)cc2C)CCC[C@H]1O [Example 6, (10,11-Dihydro-5H-pyrrolo[2,1-c][1,4]benzodiazepin-10-yl)-[4-((3R)-3-hydroxy-2-methyl-cyclohex-1-en-1-yl)-3-methyl-phenyl]-methanone] | 45 | – |
| O=C(c1ccc(C2=CCCc3ccccc32)cc1)N1Cc2cccn2Cc2ccccc21 [Example 18, (10,11-Dihydro-5H-pyrrolo[2,1-c][1,4]benzodiazepin-10-yl)-[4-(3,4-dihydro-naphthalen-1-yl)-phenyl]-methanone] | 51 | – |
| COc1cc(C2=C(C)C(=O)CCC2)c(Cl)cc1C(=O)N1Cc2cccn2Cc2ccccc21 [Example 9, 3-[2-Chloro-5-methoxy-4-(5H-pyrrolo[2,1-c][1,4]benzodiazepin-10(11H)-yl-carbonyl)phenyl]-2-methyl-cyclohex-2-en-1-one] | 17 | – |
| Cc1cc(C(=O)N2Cc3cccn3Cc3ccccc32)ccc1C1=CCCCC1C(C)(C)C (stereo not shown) [Example 34, (10,11-Dihydro-5H-pyrrolo[2,1-c][1,4]benzodiazepin-10-yl)-[4-(6-tert-butyl-cyclohex-1-en-1-yl)-3-methyl-phenyl]-methanone] | -5 | – |
| CC1(C)CCCC=C1c1ccc(C(=O)N2Cc3cccn3Cc3ccccc32)cc1 [Example 17, (10,11-Dihydro-5H-pyrrolo[2,1-c][1,4]benzodiazepin-10-yl)-[4-(6,6-dimethyl-cyclohex-1-en-1-yl)-phenyl]-methanone] | 51 | – |
| Cc1cc(C(=O)N2Cc3cccn3Cc3ccccc32)ccc1C1=CCCCC1C (stereo not shown) [Example 29, (10,11-Dihydro-5H-pyrrolo[2,1-c][1,4]benzodiazepin-10-yl)-[3-methyl-4-(6-methyl-cyclohex-1-en-1-yl)-phenyl]-methanone] | 27 | – |
| O=C(c1ccc(C2=CC(O)CCC2)cc1)N1Cc2cccn2Cc2ccccc21 (stereo not shown) [Example 25, (10,11-Dihydro-5H-pyrrolo[2,1-c][1,4]benzodiazepin-10-yl)-[4-(3-hydroxy-cyclohex-1-en-1-yl)-phenyl]-methanone] | 76 | – |
| CC1=C(c2ccc(C(=O)N3Cc4cccn4Cc4ccccc43)cc2C)CCC[C@H]1O (single isomer, unassigned) [Example 41] | 36 | – |
| COc1cccc(C2=C(c3ccc(C(=O)N4Cc5cccn5Cc5ccccc54)cc3C)CCCC2)c1 [Example 38, (10,11-Dihydro-5H-pyrrolo[2,1-c][1,4]benzodiazepin-10-yl)-{4-[2-(3-methoxy-phenyl)-cyclohex-1-en-1-yl]-3-methyl-phenyl}-methanone] | 5 | – |
| Cc1cc(C(=O)N2Cc3cccn3Cc3ccccc32)ccc1C1=CCC2CC1C2(C)C (stereo not shown) [Example 36, (10,11-Dihydro-5H-pyrrolo[2,1-c][1,4]benzodiazepin-10-yl)-[4-(6,6-dimethyl-bicyclo[3.1.1]hept-2-en-2-yl)-3-methyl-phenyl]-methanone] | 11 | – |
| Cc1cc(C(=O)N2Cc3cccn3Cc3ccccc32)ccc1C1=CC(C)(C)CC(C)(C)C1 [Example 37, (10,11-Dihydro-5H-pyrrolo[2,1-c][1,4]benzodiazepin-10-yl)-[3-methyl-4-(3,3,5,5-tetramethyl-cyclohex-1-en-1-yl)-phenyl]-methanone] | 10 | – |
| Cc1cc(C(=O)N2Cc3cccn3Cc3ccccc32)ccc1C1=CC(=O)CCC1 [Example 39, 3-[4-(10,11-Dihydro-5H-pyrrolo[2,1-c][1,4]benzodiazepine-10-carbonyl)-2-methyl-phenyl]-cyclohex-2-en-1-one] | 48 | – |
